# Values of other authors, collected in paper PMC3819103 (Magnetic resonance in medicine : official journal of the …, 2010).
# Tested on: blood-brain barrier
substance,measurement,setting,value
β-Ala(Mys)-Arg-Arg-Arg-Arg-Arg-Arg-Arg-Cys-NH2 [MPAP],Ability to cross the blood-brain barrier and localization,,"could cross the blood-brain barrier, followed by localization to the cytoplasm"
same,Delivery of a near-infrared dye across the blood-brain barrier,earlier studies,can deliver a near-infrared dye across the blood-brain barrier
